One may read the IC50 as the midpoint of a concentration-inhibition curve.

Sequence of Voltage-dependent L-type calcium channel subunit alpha-1C (P15381 whole entry): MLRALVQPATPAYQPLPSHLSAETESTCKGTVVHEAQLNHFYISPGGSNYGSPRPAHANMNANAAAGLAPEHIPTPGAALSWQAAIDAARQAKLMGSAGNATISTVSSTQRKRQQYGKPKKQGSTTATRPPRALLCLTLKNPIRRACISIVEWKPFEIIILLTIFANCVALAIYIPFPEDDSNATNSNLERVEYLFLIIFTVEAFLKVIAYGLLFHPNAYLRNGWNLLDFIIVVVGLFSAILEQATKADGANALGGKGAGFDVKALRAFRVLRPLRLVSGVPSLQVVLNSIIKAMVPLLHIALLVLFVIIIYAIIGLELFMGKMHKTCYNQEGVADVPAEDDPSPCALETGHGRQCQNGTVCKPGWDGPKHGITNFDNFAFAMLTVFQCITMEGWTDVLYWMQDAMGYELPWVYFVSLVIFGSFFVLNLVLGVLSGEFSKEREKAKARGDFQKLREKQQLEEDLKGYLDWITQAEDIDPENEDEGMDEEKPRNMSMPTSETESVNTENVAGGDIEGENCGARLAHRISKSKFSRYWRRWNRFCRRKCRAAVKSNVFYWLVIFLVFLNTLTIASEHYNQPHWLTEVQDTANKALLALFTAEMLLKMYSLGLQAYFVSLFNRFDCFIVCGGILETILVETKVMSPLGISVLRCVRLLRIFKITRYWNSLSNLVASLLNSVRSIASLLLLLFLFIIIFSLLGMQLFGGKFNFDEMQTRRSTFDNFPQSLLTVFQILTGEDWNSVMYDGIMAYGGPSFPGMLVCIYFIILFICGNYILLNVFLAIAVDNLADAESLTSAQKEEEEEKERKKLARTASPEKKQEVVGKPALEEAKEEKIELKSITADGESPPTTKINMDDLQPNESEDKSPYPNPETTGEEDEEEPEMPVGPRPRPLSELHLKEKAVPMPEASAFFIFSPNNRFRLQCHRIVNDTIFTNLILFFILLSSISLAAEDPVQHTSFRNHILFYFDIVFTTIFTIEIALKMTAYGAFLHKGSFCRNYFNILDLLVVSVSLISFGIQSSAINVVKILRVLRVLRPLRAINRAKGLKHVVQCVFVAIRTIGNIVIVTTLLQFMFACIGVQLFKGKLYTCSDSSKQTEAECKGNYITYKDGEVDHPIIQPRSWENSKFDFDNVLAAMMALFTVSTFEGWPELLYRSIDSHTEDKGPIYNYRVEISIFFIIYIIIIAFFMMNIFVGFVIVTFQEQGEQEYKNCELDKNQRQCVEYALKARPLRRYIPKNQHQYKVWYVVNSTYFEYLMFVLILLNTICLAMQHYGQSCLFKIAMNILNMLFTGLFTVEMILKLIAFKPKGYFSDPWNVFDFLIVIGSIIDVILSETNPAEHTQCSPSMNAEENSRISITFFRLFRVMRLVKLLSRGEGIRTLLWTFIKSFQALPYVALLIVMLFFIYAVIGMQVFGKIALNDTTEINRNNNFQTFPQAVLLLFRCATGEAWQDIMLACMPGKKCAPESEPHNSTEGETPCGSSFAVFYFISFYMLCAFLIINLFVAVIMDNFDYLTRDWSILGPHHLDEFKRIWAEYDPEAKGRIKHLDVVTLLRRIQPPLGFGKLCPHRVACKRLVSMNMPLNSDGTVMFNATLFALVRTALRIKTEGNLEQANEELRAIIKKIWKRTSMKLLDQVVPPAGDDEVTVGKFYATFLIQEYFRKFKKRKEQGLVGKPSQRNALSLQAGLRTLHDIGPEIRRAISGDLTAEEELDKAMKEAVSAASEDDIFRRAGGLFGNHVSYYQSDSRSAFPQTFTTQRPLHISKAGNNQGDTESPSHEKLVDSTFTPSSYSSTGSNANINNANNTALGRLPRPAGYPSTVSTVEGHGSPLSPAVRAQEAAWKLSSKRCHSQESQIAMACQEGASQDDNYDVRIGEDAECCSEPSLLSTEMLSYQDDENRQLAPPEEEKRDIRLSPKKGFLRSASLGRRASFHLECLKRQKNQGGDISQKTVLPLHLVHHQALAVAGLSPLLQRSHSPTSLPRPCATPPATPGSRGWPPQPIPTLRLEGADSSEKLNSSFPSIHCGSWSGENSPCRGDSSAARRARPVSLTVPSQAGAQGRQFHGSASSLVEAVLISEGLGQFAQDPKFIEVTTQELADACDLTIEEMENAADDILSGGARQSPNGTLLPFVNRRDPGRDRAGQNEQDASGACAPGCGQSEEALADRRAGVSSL

The target in this assay is Voltage-dependent L-type calcium channel subunit alpha-1C (Oryctolagus cuniculus, UniProt P15381). In words: ChEBML_164619. The text has this:
Blockade of calcium-evoked contractions in depolarized aortic strips
Take `COC(=O)C1C(C)=NC(C)=C(C(=O)OCN2C(=O)c3ccccc3S2(=O)=O)C1c1cccc(Cl)c1Cl` (centres undefined): the IC50 stood at 5.1 nM.

For `CC1=NC(C)=C(C(=O)OCC2CCCO2)C(c2cccc([N+](=O)[O-])c2)C1=C(O)OCN1C(=O)c2ccccc2S1(=O)=O` (centres undefined), the IC50 was 25 nM.

As for `CC1=NC(C)=C(C(=O)OCC2CCCCO2)C(c2ccccc2[N+](=O)[O-])C1=C(O)OCN1C(=O)c2ccccc2S1(=O)=O` (centres undefined), the IC50 turned out to be 25 nM.

With `COCCOC(=O)C1C(C)=NC(C)=C(C(=O)OCN2C(=O)c3ccccc3S2(=O)=O)C1c1cccc(Cl)c1Cl` (centres undefined), the IC50 worked out at 2.9 nM.

Source of the values: BindingDB's records for doi:10.1021/jm00091a008 (Alter, 1992).
